Our source for the IC50 values is US11306078B2, “Piperidine CXCR7 receptor modulators” (IDORSIA PHARMACEUTICALS LTD., priority 2016, dated 2022).

The experiment has as its target human chemokine receptor CXCR7 (Homo sapiens (Human), UniProt P25106). The experiment in a line: Tango CXCR7-bla U2OS beta-arrestin recruitment assay (beta-lactamase reporter, FRET), antagonism of CXCL12/SDF1-α.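 Note: compounds preincubated 15 min before CXCL12 addition, then 22 h at 37 °C, FRET emission ratio read with CCF4-AM substrate after 2 h.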 It counts as cell-based. The following applies: antagonistic effect on CXCR7; Tango CXCR7-bla U2OS cells, CXCL12/SDF1-α at its EC80. A general note: Recruitment of arrestin is a read-out of receptor activation apart from second messengers.

Chain of human chemokine receptor CXCR7 (P25106 whole entry): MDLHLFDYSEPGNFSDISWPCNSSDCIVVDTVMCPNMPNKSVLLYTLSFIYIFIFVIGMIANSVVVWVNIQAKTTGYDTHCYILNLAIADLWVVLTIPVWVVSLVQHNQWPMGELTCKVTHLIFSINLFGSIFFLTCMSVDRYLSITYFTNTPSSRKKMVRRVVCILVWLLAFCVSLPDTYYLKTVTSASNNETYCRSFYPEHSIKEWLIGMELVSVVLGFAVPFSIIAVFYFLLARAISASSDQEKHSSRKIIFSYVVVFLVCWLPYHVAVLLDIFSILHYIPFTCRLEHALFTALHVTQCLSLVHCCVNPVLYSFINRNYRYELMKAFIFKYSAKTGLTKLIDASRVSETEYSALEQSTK

The term IC50 denotes the concentration at which inhibition is half-maximal. The low end stands for greater potency in that assay, the high end for weaker potency in that assay. `O=C(N[C@@H]1CCN(C2CCCCC2)C[C@H]1C(=O)NC1(c2ccc(F)cn2)CC1)c1cn(-c2ccc(F)cc2F)nn1` (racemic) [Example 1.142, rac-(3R*,4R*)-1-Cyclohexyl-4-{[1-(2,4-difluoro-phenyl)-1H-[1,2,3]triazole-4-carbonyl]-amino}-piperidine-3-carboxylic acid [1-(5-fluoro-pyridin-2-yl)-cyclopropyl]-amide] came in with an IC50 of 472 nM.
To `O=C(N[C@@H]1CCN(C2CCCCC2)C[C@H]1C(=O)NC1(c2ccc(F)cn2)CC1)c1cc(-c2c(F)cc(F)cc2F)on1` (racemic) [Example 1.143, rac-(3R*,4R*)-1-Cyclohexyl-4-{[5-(2,4,6-trifluoro-phenyl)-isoxazole-3-carbonyl]-amino}-piperidine-3-carboxylic acid [1-(5-fluoro-pyridin-2-yl)-cyclopropyl]-amide] belongs 719 nM; to `O=C(N[C@@H]1CCN(CC2CC2)C[C@H]1C(=O)NC1(c2ccc(F)cn2)CC1)c1cc(-c2c(F)cc(F)cc2F)on1` (racemic) [Example 1.144, rac-(3R*,4R*)-1-Cyclopropylmethyl-4-{[5-(2,4,6-trifluoro-phenyl)-isoxazole-3-carbonyl]-amino}-piperidine-3-carboxylic acid [1-(5-fluoro-pyridin-2-yl)-cyclopropyl]-amide], 178 nM.
Next, `CN(C)C(=O)[C@@H]1CN(CC2CC2)CC[C@H]1NC(=O)c1cc(-c2ccc(F)cc2F)no1` (racemic) [Example 1.149, rac-(3R*,4R*)-1-Cyclopropylmethyl-4-{[3-(2,4-difluoro-phenyl)-isoxazole-5-carbonyl]-amino}-piperidine-3-carboxylic acid dimethylamide]: 276 nM; `COCC(C)(C)NC(=O)[C@@H]1CN(CC2CC2)CC[C@H]1NC(=O)c1cc(-c2ccc(F)cc2F)no1` (racemic) [Example 1.151, rac-(3R*,4R*)-1-Cyclopropylmethyl-4-{[3-(2,4-difluoro-phenyl)-isoxazole-5-carbonyl]-amino}-piperidine-3-carboxylic acid (2-methoxy-1,1-dimethyl-ethyl)-amide]: 554 nM.
To `COCC(C)(C)NC(=O)[C@@H]1CN(C2CCCCC2)CC[C@H]1NC(=O)c1noc(-c2ccc(F)cc2F)n1` (racemic) [Example 1.152, rac-(3R*,4R*)-1-Cyclohexyl-4-{[5-(2,4-difluoro-phenyl)-[1,2,4]oxadiazole-3-carbonyl]-amino}-piperidine-3-carboxylic acid (2-methoxy-1,1-dimethyl-ethyl)-amide] belongs 569 nM.
The compound `COCC(C)(C)NC(=O)[C@@H]1CN(CC2CC2)CC[C@H]1NC(=O)c1noc(-c2ccc(F)cc2F)n1` (racemic) [Example 1.153, rac-(3R*,4R*)-1-Cyclopropylmethyl-4-{[5-(2,4-difluoro-phenyl)-[1,2,4]oxadiazole-3-carbonyl]-amino}-piperidine-3-carboxylic acid (2-methoxy-1,1-dimethyl-ethyl)-amide] came in with a half-maximal inhibitory concentration (IC50) of 803 nM.
In turn, `O=C(N[C@@H]1CCN(CC2CC2)C[C@H]1C(=O)NC1(c2ccc(F)cn2)CC1)c1cc(-c2ccc(F)cc2F)no1` (racemic) [Example 1.163, rac-(3R*,4R*)-1-Cyclopropylmethyl-4-{[3-(2,4-difluoro-phenyl)-isoxazole-5-carbonyl]-amino}-piperidine-3-carboxylic acid [1-(5-fluoro-pyridin-2-yl)-cyclopropyl]-amide] had a half-maximal inhibitory concentration (IC50) of 953 nM.
Next, `O=C(N[C@@H]1CCN(C2CCCCC2)C[C@H]1C(=O)NC1(c2ccccn2)CC1)c1cn(-c2ccc(F)cc2F)nn1` (racemic) [Example 1.165, rac-(3R*,4R*)-1-Cyclohexyl-4-{[1-(2,4-difluoro-phenyl)-1H-[1,2,3]triazole-4-carbonyl]-amino}-piperidine-3-carboxylic acid (1-pyridin-2-yl-cyclopropyl)-amide]: 92 nM; `O=C(N[C@@H]1CCN(C2CCCC2)C[C@H]1C(=O)NC1(c2ccccn2)CC1)c1cn(-c2ccc(F)cc2F)nn1` (racemic) [Example 1.166, rac-(3R*,4R*)-1-Cyclopentyl-4-{[1-(2,4-difluoro-phenyl)-1H-[1,2,3]triazole-4-carbonyl]-amino}-piperidine-3-carboxylic acid (1-pyridin-2-yl-cyclopropyl)-amide]: 52 nM.
Compound `O=C(N[C@@H]1CCN(CC2CC2)C[C@H]1C(=O)NC1(c2ccccn2)CC1)c1cn(-c2ccc(F)cc2F)nn1` (racemic) [Example 1.167, rac-(3R*,4R*)-1-Cyclopropylmethyl-4-{[1-(2,4-difluoro-phenyl)-1H-[1,2,3]triazole-4-carbonyl]-amino}-piperidine-3-carboxylic acid (1-pyridin-2-yl-cyclopropyl)-amide] had an IC50 of 134 nM.
`O=C(N[C@@H]1CCN(C2CCCCC2)C[C@H]1C(=O)NC1(c2ccccn2)CC1)c1cc(-c2c(F)cc(F)cc2F)on1` (racemic) [Example 1.169, rac-(3R*,4R*)-1-Cyclohexyl-4-{[5-(2,4,6-trifluoro-phenyl)-isoxazole-3-carbonyl]-amino}-piperidine-3-carboxylic acid (1-pyridin-2-yl-cyclopropyl)-amide] showed a concentration for half-maximal inhibition (IC50) of 5 nM.
Compound `O=C(N[C@@H]1CCN(CC2CC2)C[C@H]1C(=O)NC1(c2ccccn2)CC1)c1cc(-c2c(F)cc(F)cc2F)on1` (racemic) [Example 1.171, rac-(3R*,4R*)-1-Cyclopropylmethyl-4-{[5-(2,4,6-trifluoro-phenyl)-isoxazole-3-carbonyl]-amino}-piperidine-3-carboxylic acid (1-pyridin-2-yl-cyclopropyl)-amide] returned a half-maximal inhibitory concentration (IC50) of 16 nM.
Consider `O=C(N[C@@H]1CCN(C2CCCC2)C[C@H]1C(=O)NC1(c2ccccn2)CC1)c1cc(-c2ccc(F)cc2F)no1` (racemic) [Example 1.173, rac-(3R*,4R*)-1-Cyclopentyl-4-{[3-(2,4-difluoro-phenyl)-isoxazole-5-carbonyl]-amino}-piperidine-3-carboxylic acid (1-pyridin-2-yl-cyclopropyl)-amide], for which the half-inhibitory concentration (IC50) turned out to be 110 nM.
Regarding `O=C(N[C@@H]1CCN(CC2CC2)C[C@H]1C(=O)NC1(c2ccccn2)CC1)c1cc(-c2ccc(F)cc2F)no1` (racemic) [Example 1.174, rac-(3R*,4R*)-1-Cyclopropylmethyl-4-{[3-(2,4-difluoro-phenyl)-isoxazole-5-carbonyl]-amino}-piperidine-3-carboxylic acid (1-pyridin-2-yl-cyclopropyl)-amide], half-maximal inhibition (IC50) required 36 nM.
To `O=C(N[C@@H]1CCN(C2CCCC2)C[C@H]1C(=O)NC1(c2ncccn2)CC1)c1cc(-c2c(F)cc(F)cc2F)on1` (racemic) [Example 1.176, rac-(3R*,4R*)-1-Cyclopentyl-4-{[5-(2,4,6-trifluoro-phenyl)-isoxazole-3-carbonyl]-amino}-piperidine-3-carboxylic acid (1-pyrimidin-2-yl-cyclopropyl)-amide] belongs 6 nM; to `O=C(N[C@@H]1CCN(CC2CC2)C[C@H]1C(=O)NC1(c2ncccn2)CC1)c1cc(-c2c(F)cc(F)cc2F)on1` (racemic) [Example 1.177, rac-(3R*,4R*)-1-Cyclopropylmethyl-4-{[5-(2,4,6-trifluoro-phenyl)-isoxazole-3-carbonyl]-amino}-piperidine-3-carboxylic acid (1-pyrimidin-2-yl-cyclopropyl)-amide], 5 nM.
Compound `CC(C)(C#N)NC(=O)[C@@H]1CN(C2CCCCC2)CC[C@H]1NC(=O)c1cc(-c2ccc(F)cc2F)on1` (racemic) [Example 1.183, rac-(3R*,4R*)-1-Cyclohexyl-4-{[5-(2,4-difluoro-phenyl)-isoxazole-3-carbonyl]-amino}-piperidine-3-carboxylic acid (cyano-dimethyl-methyl)-amide] showed an IC50 of 79 nM.
To `O=C(N[C@@H]1CCN(CC2CC2)C[C@H]1C(=O)NC1(c2ncccn2)CC1)c1cc(-c2ccc(Cl)cc2Cl)on1` (racemic) [Example 1.189, rac-(3R*,4R*)-1-Cyclopropylmethyl-4-{[5-(2,4-dichloro-phenyl)-isoxazole-3-carbonyl]-amino}-piperidine-3-carboxylic acid (1-pyrimidin-2-yl-cyclopropyl)-amide] belongs 36 nM; to `O=C(N[C@@H]1CCN(CC2CC2)C[C@H]1C(=O)NC1(c2ncccn2)CC1)c1cc(-c2c(F)cccc2F)on1` (racemic) [Example 1.191, rac-(3R*,4R*)-1-Cyclopropylmethyl-4-{[5-(2,6-difluoro-phenyl)-isoxazole-3-carbonyl]-amino}-piperidine-3-carboxylic acid (1-pyrimidin-2-yl-cyclopropyl)-amide], 186 nM.
`O=C(N[C@@H]1CCN(CC2CC2)C[C@H]1C(=O)NC1(c2ncccn2)CC1)c1cc(-c2ccc(C(F)(F)F)cc2)on1` (racemic) [Example 1.192, rac-(3R*,4R*)-1-Cyclopropylmethyl-4-{[5-(4-trifluoromethyl-phenyl)-isoxazole-3-carbonyl]-amino}-piperidine-3-carboxylic acid (1-pyrimidin-2-yl-cyclopropyl)-amide] showed an IC50 of 389 nM.
For the compound `O=C(N[C@@H]1CCN(CC2CC2)C[C@H]1C(=O)NC1(c2ncccn2)CC1)c1cc(-c2cccc(C(F)(F)F)c2)on1` (racemic) [Example 1.193, rac-(3R*,4R*)-1-Cyclopropylmethyl-4-{[5-(3-trifluoromethyl-phenyl)-isoxazole-3-carbonyl]-amino}-piperidine-3-carboxylic acid (1-pyrimidin-2-yl-cyclopropyl)-amide], the IC50 was determined as 191 nM.
`COc1ccc(-c2cc(C(=O)N[C@@H]3CCN(CC4CC4)C[C@H]3C(=O)NC3(c4ncccn4)CC3)no2)c(F)c1` (racemic) [Example 1.195, rac-(3R*,4R*)-1-Cyclopropylmethyl-4-{[5-(2-fluoro-4-methoxy-phenyl)-isoxazole-3-carbonyl]-amino}-piperidine-3-carboxylic acid (1-pyrimidin-2-yl-cyclopropyl)-amide]: the 50% inhibitory concentration (IC50) worked out at 759 nM.
